Series [1] has as its system 5-8F. In words: Antiproliferative activity against human 5-8F cells assessed as cell viability at 80 uM incubated for 72 hrs by CCK-8 assay. The note with it: read-out: Activity. Type of series: functional.
Series [2] has as its system HeLa. The series can be described thus: Antiproliferative activity against human HeLa cells assessed as cell viability at 80 uM incubated for 72 hrs by CCK-8 assay. Type of series: functional. The note with it: read-out: Activity.
Series [3] relates to SK-HEP1. The series can be described thus: Antiproliferative activity against human SK-HEP1 cells assessed as cell viability at 80 uM incubated for 72 hrs by CCK-8 assay. The note with it: read-out: Activity. Type of series: functional.
Series [4] has as its system CAL-27. In words: Antiproliferative activity against human CAL-27 cells assessed as reduction in cell viability incubated for 72 hrs by CCK-8 assay. Type of series: functional, cell-based. The note with it: CAL-27, 72 h.
For series [5], the system named is FaDu. In words: Antiproliferative activity against human FaDu cells assessed as reduction in cell viability incubated for 72 hrs by CCK-8 assay. Type of series: functional, cell-based.
Series [6] has as its system 5-8F. In words: Antiproliferative activity against human 5-8F cells assessed as reduction in cell viability incubated for 72 hrs by CCK-8 assay. Type of series: functional, cell-based.
The nature of series [7]: Toxicity in BALB/c mouse xenografted with human 5-8F cells assessed as decrease in body weight at 2 mg/kg, ip administered every 2 days. Type of series: organism-based. As to conditions: in vivo, 48 h, time 2 day.
A short description of series [8]: Antiproliferative activity against human NP69SV40T cells assessed as reduction in cell viability incubated for 72 hrs by CCK-8 assay. Type of series: toxicity, cell-based.

In ChEMBL document CHEMBL5223175, “Discovery of novel 2-oximino-2-indolylacetamide derivatives as potent anticancer agents capable of inducing cell autophagy and ferroptosis” (Bioorg Med Chem, 2023) one finds viability, IC50 and Activity data, which are given here for 14 molecules.

For `Cn1cc(/C(=N/O)C(=O)Nc2cccc(Cl)c2)c2ccccc21`, the values for the viability at 80 µM in series [1], in series [2] and in series [3] were 78%, 64.6% and 64.6%, respectively.
For `Cn1cc(/C(=N\O)C(=O)Nc2cccc(Cl)c2)c2ccccc21`, the viability at 80 µM in series [1] stood at 12.7%; in series [2], 14%; in series [3] it was 31.4%.
The like results for `Cn1cc(/C(=N/O)C(=O)Nc2cccc(F)c2)c2ccccc21` were, in that order, 73.1%, 61.2% and 68%.
In the case of `Cc1ccccc1NC(=O)/C(=N\O)c1cn(C)c2ccccc12`, the viability at 80 µM was 92.8% in series [1], 86.3% in series [2] and 77.6% in series [3].
With `COc1cccc2c1C(=O)c1c(O)c3c(c(O)c1C2=O)C[C@@](O)(C(=O)CO)C[C@@H]3O[C@H]1C[C@H](N)[C@H](O)[C@H](C)O1` [DOXORUBICIN], the IC50 in series [4] worked out at 180 nM; in series [5], 160 nM; in series [6], 340 nM. Moreover, the Activity result in series [7] was “Toxic”. For the same molecule, the IC50 at 72 h in series [8] worked out at 110 nM.
Take `Cn1cc(/C(=N\O)C(=O)Nc2ccc(Br)c(F)c2)c2ccccc21`: the figures for the viability at 80 µM in series [1], in series [2] and in series [3] were 86.8%, 56.7% and 75.6%, respectively.
The matching figures for `Cn1cc(/C(=N/O)C(=O)Nc2ccc(Cl)cc2)c2ccccc21`: 47.2%, 57.2% and 71.6%.
The like results for `Cc1ccccc1NC(=O)/C(=N/O)c1cn(C)c2ccccc12` were, in that order, 95.3%, 77.1% and 76.8%.
The matching figures for `Cn1cc(/C(=N\O)C(=O)Nc2ccc(C(F)(F)F)cc2)c2ccccc21`: 10.2%, 15.8% and 15%.
Take `Cn1cc(/C(=N/O)C(=O)Nc2ccc(Br)cc2)c2ccccc21`: the viability at 80 µM in series [1] stood at 31.5%; in series [2], 18.4%; in series [3] it was 29.1%.
The like results for `Cn1cc(/C(=N/O)C(=O)Nc2ccc(Br)c(F)c2)c2ccccc21` were, in that order, 75%, 71.2% and 60.6%.
The like results for `Cn1cc(/C(=N\O)C(=O)Nc2ccc(Br)cc2)c2ccccc21` were, in that order, 22.1%, 14.8% and 28.9%.
Regarding `Cn1cc(/C(=N\O)C(=O)Nc2cccc(F)c2)c2ccccc21`, the viability at 80 µM in series [1] is 59.3%; in series [2] it was 53.2%; in series [3], 40%.
The like results for `Cn1cc(/C(=N/O)C(=O)Nc2ccc(C(F)(F)F)cc2)c2ccccc21` were, in that order, 45%, 25.7% and 51.5%.
